# Publication PMC6615598, “Novel antibiotics effective against gram-positive and -negative multi-resistant bacteria with limited resistance” (PLoS Biology, 2019)
# Values joined by “and” are separate entries in the source; they are usually repeats but may differ in a detail not shown here. Equal values may be shown once. Read-outs that look alike come from different tables or passages of the source.
# Legend:
# E. coli 13090 = assay: microbe, parasite or virus in culture
# Method: (§1) For 15 d in MHB, MICs were determined daily for each pseudopeptide and their antibiotic controls. This was done using cells from the well in which the compound concentration was one-half of the MIC (1/2MIC). For each compound, the 1/2MIC well from the previous day’s MIC assay plate was re-suspended and the bacteria grown to a density of about 10^8 cells ml−1. The suspension was diluted in MHB or CAMHB (10^6 cells/ml) and then used to determine the MIC of the same compound determined by micro broth dilution. All MIC measurements were performed in duplicate. Aliquots of the 5 × 10^4 cell/ml dilutions for each 1/2MIC well were periodically plated on MHB and incubated at 35°C for 18 h to verify cell density by colony counts and for visual inspection of colony phenotypes. To control compound stability, peptide solution MICs were determined during and at the end of the 15 d and were compared to cells unexposed to antibiotics. In vivo resistance was also assessed in treated mice (1.5 mg.kg^−1) for 4 d (sepsis) or 6 d (skin abscesses). […] The broth microdilution method was performed as per EUCAST recommendations on 5 independent colonies per mouse (3 mice per set, 15 colonies per drug tested). For severe sepsis and subcutaneous abscesses, in vivo resistance was determined by plating aliquots of crude kidney extracts or abscesses on plates containing 1-, 2-, 4-, or 8-fold the peptide MICs 7 or 3 d post infections, respectively.
# E. coli K12 = assay: microbe, parasite or virus in culture
# Method: as §1
# E. coli MCR1 = assay: microbe, parasite or virus in culture
# Method: as §1
# P. aeruginosa 15643 [1] = assay: microbe, parasite or virus in culture
# Method: as §1
# S. aureus N315 (MRSA) = assay: microbe, parasite or virus in culture
# Method: (§2) (10−4 M final concentrations). At selected time intervals, 100 μl of reaction mixture was collected, quenched by 200 μl 95% EtOH, and adjusted at pH 2 to prevent peptide adsorption to serum proteins. […] Supernatants were analyzed by RP-HPLC on an Xbridge C18 column with a linear gradient of water, 0.08% TFA, and acetonitrile with 1% TFA. HPLC peak areas were used to calculate the percentages of intact compound remaining at the various time points. MIC and MBC values were determined in triplicate in many ESKAPE clinical isolates, including a dozen MDR S. aureus, by the broth microdilution method. Peptidomimetics and antibiotics were assayed in a concentration range of 1 to 128 μM. The bacterial inoculum (5 × 10^5 colony-forming units [CFUs]/well) was prepared in MHB or CAMHB (150 μl). A Biotek Synergy 2 spectrophotometer was used to record the results after 18–20 h incubation at 35°C (±2°C). […] After every hour of culture for 4 h, serial dilutions were plated on BHI plates and incubated overnight at 37°C, and then the CFUs were counted and expressed as log CFU/ml. Phosphate-buffered saline (PBS)-exposed S. aureus MRSA was included as a control.
# MRSA (Mu3) = assay: microbe, parasite or virus in culture
# Method: as §1
# MSSA (Newman) = assay: microbe, parasite or virus in culture; conditions: for MIC: Staphylococcus aureus
# Method: as §1
# P. aeruginosa LESB58 = assay: Cutaneous abscess mouse model (CFU); format: in vivo, mice; conditions: cutaneous abscesses induced by P. aeruginosa in mice; repeated doses post-infection, 9 mg/kg; second data set; individual values
# Method: For the cutaneous abscess model, the mice were randomly divided into 5 sets. The mice were anesthetized with isoflurane, their dorsal fur shaved, and their skin disinfected with 70% ethanol. An overnight culture of S. aureus MRSA or P. aeruginosa LESB58 was washed with 0.9% NaCl, and then a subcutaneous injection of 2 × 10^9 CFUs and an equal amount of sterile Cytodex microcarrier beads (20 mg.ml^−1, Sigma) for S. aureus MRSA, or 10^8 CFUs for P. aeruginosa were injected into the shaved area. […] Mice were monitored every day and then euthanized with CO2 on Day 6 or on Day 3. Abscesses were excised, measured, and homogenized in PBS using an Ultra-Turax. Serial dilutions of the samples were plated on BHI (MRSA) or 2YT medium (LESB58) plates and then incubated overnight at 37°C. Afterward, the CFUs were counted and expressed as log CFU/ml. Dermonecrosis areas were calculated according to the formula π × L × W. ATP levels were determined with an ATP assay kit (Promega) according to manufacturer instructions on sets of 5 colonies harboring the SCV phenotype, and sets of 5 colonies harboring a normal phenotype, after growth on BHI plates.
# S. aureus Mu3 (MRSA) = assay: microbe, parasite or virus in culture; conditions: S. aureus Mu3 (MRSA); broth microdilution; 3 independent experiments
# Method: as §2
# S. aureus Newman = assay: microbe, parasite or virus in culture; conditions: S. aureus Newman; broth microdilution; 3 independent experiments
# Method: as §2
# Escherichia coli K12 = conditions: E. coli K12; for MIC: broth microdilution, 3 independent experiments
# Method: as §2
# A. baumanii 11896 = test system: A. baumanii 11896
# Method: as §2
# A. baumanii 7985 = test system: A. baumanii 7985
# Method: as §2
# [2] = test system: Enterobacter cloacae ATCC13047; conditions: Enterobacter cloacae ATCC13047
# Method: as §2
# Escherichia coli 066 = test system: Escherichia coli 066
# Method: as §2
# Escherichia coli 13090 = test system: Escherichia coli 13090
# Method: as §2
# Escherichia coli 146 = test system: Escherichia coli 146
# Method: as §2
# Escherichia coli 283 = test system: Escherichia coli 283
# Method: as §2
# Escherichia coli 293 = test system: Escherichia coli 293
# Method: as §2
# Escherichia coli 444 = test system: Escherichia coli 444
# Method: as §2
# Escherichia coli 508 = test system: Escherichia coli 508
# Method: as §2
# Escherichia coli 750 = test system: Escherichia coli 750
# Method: as §2
# Escherichia coli 758 = test system: Escherichia coli 758
# Method: as §2
# Escherichia coli MCR−1 = test system: Escherichia coli MCR−1
# Method: as §2
# Escherichia coli ML35P = conditions: E. coli ML35P
# Method: as §2
# Escherichia coli PV = conditions: E. coli PV
# Method: as §2
# K. pneumoniae 13825 = test system: K. pneumoniae 13825
# Method: as §2
# K. pneumoniae 13829 = test system: K. pneumoniae 13829
# Method: as §2
# P. aeruginosa 15637 = test system: P. aeruginosa 15637
# Method: as §2
# P. aeruginosa 15638 = test system: P. aeruginosa 15638
# Method: as §2
# P. aeruginosa 15641 = test system: P. aeruginosa 15641
# Method: as §2
# P. aeruginosa 15643 [3] = test system: P. aeruginosa 15643
# Method: as §2
# P. aeruginosa 15644 = test system: P. aeruginosa 15644
# Method: as §2
# P. aeruginosa PA14 = conditions: P. aeruginosa PA14
# Method: as §2
# [4] = Stability in human serum (half-life); format: in vitro ADME; conditions: 25% human serum, pre-incubated 15 min at 37°C, peptide 10^−4 M, RP-HPLC peak areas, mean of biological triplicates
# Method: as §2
# (§3) Supplementary file pbio.3000337.s013.docx: S7 Table Peptide half-lives in human and mouse sera. […] Peptide amounts and half-lives were determined by HPLC. Experiments were conducted on 25% human or mouse sera. Values are shown in minutes. The mean values correspond to biological triplicates. HPLC, high pressure liquid chromatography. (DOCX) Click here for additional data file.
# [5] = Stability in mouse serum (half-life); format: in vitro ADME; conditions: 25% mouse serum, pre-incubated 15 min at 37°C, peptide 10^−4 M, RP-HPLC peak areas, mean of biological triplicates
# Method: as §2, §3
# [6] = broth microdilution, 3 independent experiments
molecule,measurement,setting,value
"C[C@@H]1O[C@@H]1P(=O)(O)O [Fosfomycin, fosfomycin, reference compound]",MIC,"E. coli 13090; E. coli 13090, d0 of serial passages",0.027 g/L
same,MIC,"E. coli 13090; Escherichia coli, 13090",200 µM
same,MIC,"E. coli K12; E. coli K12, d0 of serial passages",0.027 g/L
same,MIC,"E. coli K12; Escherichia coli, K12",200 µM
same,MIC,"E. coli MCR1; E. coli MCR1, d0 of serial passages",0.027 g/L
same,MIC,"E. coli MCR1; Escherichia coli, MCR1",200 µM
same,MIC,"P. aeruginosa 15643 [1]; P. aeruginosa 15643, d0 of serial passages",0.027 g/L
same,MIC,"P. aeruginosa 15643 [1]; Pseudomonas aeruginosa, 15643",200 µM
"COc1cccc(OC)c1C(=O)N[C@@H]1C(=O)N2[C@@H]1SC(C)(C)[C@@H]2C(=O)O [Methicillin, methicillin]",MIC,"S. aureus N315 (MRSA); Staphylococcus aureus, MRSA",32 µM
"CO[C@H]1/C=C/O[C@@]2(C)Oc3c(C)c(O)c4c(O)c(c(/C=N/N5CCN(C)CC5)c(O)c4c3C2=O)NC(=O)/C(C)=C\C=C\[C@H](C)[C@H](O)[C@@H](C)[C@@H](O)[C@@H](C)[C@H](OC(C)=O)[C@@H]1C [Rifampicin, rifampicin]",MIC,"MRSA (Mu3); MRSA (Mu3), d14 of serial passages at sub-MIC","1,024 (843) μM"
same,MIC,"MRSA (Mu3); Staphylococcus aureus, MRSA",1020 µM
same,Increase of MIC after 2 weeks of serial passages,MSSA (Newman); S. aureus,"about 30,000 fold"
same,MIC,"MSSA (Newman); MSSA (Newman), d0 of serial passages",0.03 µM
same,MIC,"MSSA (Newman); MSSA|NEWMAN, d14 of serial passages at sub-MIC",1020 µM
Colistine,CFU counts per abscess,P. aeruginosa LESB58,3.8 log Cfu/ml and 4 log Cfu/ml and 4.8 log Cfu/ml and 4.6 log Cfu/ml
nisin,MIC,S. aureus Mu3 (MRSA),8 (32) μM
same,MIC,"S. aureus N315 (MRSA); S. aureus N315 (MRSA), broth microdilution, 3 independent experiments",8 (32) μM
same,MIC,S. aureus Newman,8 (32) μM
same,MIC,Escherichia coli K12,4 (16) μM
polymyxin B [reference compound],MBC/MIC,A. baumanii 11896; A. baumanii 11896,2
same,MIC,"A. baumanii 11896; A. baumanii 11896, clinical strain, Caen hemoculture, broth microdilution, 3 independent experiments",1 (1.3) μM
same,MBC/MIC,A. baumanii 7985; A. baumanii 7985,1
same,MIC,"A. baumanii 7985; A. baumanii 7985, clinical strain, Caen hemoculture, broth microdilution, 3 independent experiments",1 (1.3) μM
same,MBC/MIC,[2],2
same,MIC,[2]; [6],8 (10.4) μM
same,MBC/MIC,Escherichia coli 066; E. coli 066,1
same,MIC,"Escherichia coli 066; E. coli 066, clinical strain, Rennes urinary catheter, broth microdilution, 3 independent experiments",1 (1.3) μM
same,MBC/MIC,Escherichia coli 13090; E. coli 13090,1
same,MIC,"Escherichia coli 13090; E. coli 13090, clinical strain, Caen hemoculture, broth microdilution, 3 independent experiments",0.5 (0.65) μM
same,MBC/MIC,Escherichia coli 146; E. coli 146,1
same,MIC,"Escherichia coli 146; E. coli 146, clinical strain, Rennes urinary catheter, broth microdilution, 3 independent experiments",1 (1.3) μM
same,MBC/MIC,Escherichia coli 283; E. coli 283,1
same,MIC,"Escherichia coli 283; E. coli 283, clinical strain, Rennes urinary catheter, broth microdilution, 3 independent experiments",0.5 (0.65) μM
same,MBC/MIC,Escherichia coli 293; E. coli 293,1
same,MIC,"Escherichia coli 293; E. coli 293, clinical strain, Rennes urinary catheter, broth microdilution, 3 independent experiments",0.5 (0.65) μM
same,MBC/MIC,Escherichia coli 444; E. coli 444,1
same,MIC,"Escherichia coli 444; E. coli 444, clinical strain, Rennes urinary catheter, broth microdilution, 3 independent experiments",0.5 (0.65) μM
same,MBC/MIC,Escherichia coli 508; E. coli 508,1
same,MIC,"Escherichia coli 508; E. coli 508, clinical strain, Rennes urinary catheter, broth microdilution, 3 independent experiments",0.5 (0.65) μM
same,MBC/MIC,Escherichia coli 750; E. coli 750,1
same,MIC,"Escherichia coli 750; E. coli 750, clinical strain, Rennes urinary catheter, broth microdilution, 3 independent experiments",1 (1.3) μM
same,MBC/MIC,Escherichia coli 758; E. coli 758,1
same,MIC,"Escherichia coli 758; E. coli 758, clinical strain, Rennes urinary catheter, broth microdilution, 3 independent experiments",0.5 (0.65) μM
same,MBC/MIC,Escherichia coli K12,1
same,MIC,Escherichia coli K12,0.5 (0.65) μM
same,MBC/MIC,Escherichia coli MCR−1; E. coli MCR−1,1
same,MIC,"Escherichia coli MCR−1; E. coli MCR−1, clinical strain, Caen hemoculture, broth microdilution, 3 independent experiments",2 (2.6) μM
same,MBC/MIC,Escherichia coli ML35P,1
same,MBC/MIC,Escherichia coli PV,1
same,MIC,"Escherichia coli PV; clinical strain, Rennes vascular prosthetics, broth microdilution, 3 independent experiments",0.5 (0.65) μM
same,MBC/MIC,K. pneumoniae 13825; K. pneumoniae 13825,2
same,MIC,"K. pneumoniae 13825; K. pneumoniae 13825, clinical strain, Caen hemoculture, broth microdilution, 3 independent experiments",2 (2.6) μM
same,MBC/MIC,K. pneumoniae 13829; K. pneumoniae 13829,2
same,MIC,"K. pneumoniae 13829; K. pneumoniae 13829, clinical strain, Caen hemoculture, broth microdilution, 3 independent experiments",8 (10.4) μM
same,MBC/MIC,P. aeruginosa 15637; P. aeruginosa 15637,2
same,MIC,"P. aeruginosa 15637; P. aeruginosa 15637, clinical strain, Caen hemoculture, broth microdilution, 3 independent experiments",1 (1.3) μM
same,MBC/MIC,P. aeruginosa 15638; P. aeruginosa 15638,2
same,MIC,"P. aeruginosa 15638; P. aeruginosa 15638, clinical strain, Caen hemoculture, broth microdilution, 3 independent experiments",1 (1.3) μM
same,MBC/MIC,P. aeruginosa 15641; P. aeruginosa 15641,2
same,MIC,"P. aeruginosa 15641; P. aeruginosa 15641, clinical strain, Caen hemoculture, broth microdilution, 3 independent experiments",1 (1.3) μM
same,MBC/MIC,P. aeruginosa 15643 [3]; P. aeruginosa 15643,2
same,MIC,"P. aeruginosa 15643 [3]; P. aeruginosa 15643, clinical strain, Caen hemoculture, broth microdilution, 3 independent experiments",0.5 (0.65) μM
same,MBC/MIC,P. aeruginosa 15644; P. aeruginosa 15644,2
same,MIC,"P. aeruginosa 15644; P. aeruginosa 15644, clinical strain, Caen hemoculture, broth microdilution, 3 independent experiments",1 (1.3) μM
same,MBC/MIC,P. aeruginosa PA14,2
same,MIC,P. aeruginosa PA14; [6],0.5 (0.65) μM
same,Half-life in human serum,[4],1380 ± 200 min
same,Half-life in mouse serum,[5],640 ± 162 min
